Experimental data published in patent publication US8071654B2, “Inhibitors of thromboxane formation and action” (priority 2000, dated 2011).

What was measured:
Type in all cases: cell-based
[1] = system: human platelets; test: collagen-evoked aggregation of washed human platelets
Protocol: Venous blood was obtained from healthy human subjects who had not taken NSAID's for at least two weeks. Blood was drawn into plastic syringes containing ACD. […] The platelet rich plasma was transferred into fresh plastic tubes and centrifuged at 400×g for 5 min. […] A platelet count was made, which determined the volume of platelet suspension needed to make up 350×10^6 cells for each measurement. The aliquot was diluted with medium to make 0.5 ml/assay/cuvette. Appropriate calibration of the aggregometer (PAP-4C) for 0% and 100% transmission was carried out through the use of a sample of platelet suspension and cell-free medium (37).
(§1) 0.5 ml of platelet suspension was added to siliconized glass tubes (four at a time) and heated with magnetic stirring to 37° for 1 min in a platelet aggregometer (PAP-4C). Either vehicle alone (ethanol, 1 μl) or hepoxilin analog was then added, followed two min later by agonist (collagen: 2 μg; PGH2: 100 ng/0.5 ml; U46619: 10 ng/0.5 ml or I-BOP: 2 ng/0.5 ml). The response was recorded for the next 5 min. In experiments where analysis of TxB2 and HHT were to be made by HPLC, the platelet suspension at the end of the experiment was diluted with ethyl acetate, 100 ng of prostaglandin B1 was added as internal standard, and the mixture was acidified to pH 3 with 0.1 N HCl. After centrifugation, the organic layer was separated, washed twice with water to neutrality, and evaporated to dryness. Half of the sample was taken and was resuspended in 1 ml ethyl acetate containing 20 μg ADAM reagent, and was left in the dark for 2 h (38). The solvent was then evaporated and the residue was acetylated with a solution of pyridine/acetic anhydride (3/1, v/v) during 16 h at 23°. The reagents were evaporated to dryness and the residue was resuspended in acetonitrile/water for HPLC analysis. In experiments where the conversion of tritiated PGH2 was to be monitored, the procedure described above was repeated with tritiated PGH2 instead of unlabeled PGH2. After extraction of the sample as described above, the radiolabeled compounds were analyzed by TLC. Dose response curves for varying amounts of test compounds were generated and the data expressed as % inhibition of collagen-induced platelet aggregation. Each point was investigated 5 times and statistical analysis of the data was carried out using Macintosh Statview statistical software.

[2] = system: human platelets; test: PGH2-evoked platelet aggregation; settings: PGH2 100 ng; PBT-3 at various doses before PGH2
Protocol: Venous blood was obtained from healthy human subjects who had not taken NSAID's for at least two weeks. Blood was drawn into plastic syringes containing ACD. It was immediately centrifuged at 23° at 200×g for 15 min. The platelet rich plasma was transferred into fresh plastic tubes and centrifuged at 400×g for 5 min. The supernatant was discarded and the platelet sediment was resuspended in fresh medium containing NaCl (137 mM), KCl (1 mM), NaH2PO4, glucose (5.5 mM), HEPES (20 mM) and CaCl2 (1 mM) and allowed to stand at room temperature for 30 min. A platelet count was made, which determined the volume of platelet suspension needed to make up 350×10^6 cells for each measurement. The aliquot was diluted with medium to make 0.5 ml/assay/cuvette. […]
0.5 ml of platelet suspension was added to siliconized glass tubes (four at a time) and heated with magnetic stirring to 37° for 1 min in a platelet aggregometer (PAP-4C). […] The response was recorded for the next 5 min. […] In experiments where the conversion of tritiated PGH2 was to be monitored, the procedure described above was repeated with tritiated PGH2 instead of unlabeled PGH2. After extraction of the sample as described above, the radiolabeled compounds were analyzed by TLC. Dose response curves for varying amounts of test compounds were generated and the data expressed as % inhibition of collagen-induced platelet aggregation. […]

[3] = target: T1, 12-LOX (Homo sapiens, UniProt P18054); test: 12-HETE formed in collagen-treated washed human platelets (12-LOX), HPLC; settings: for 12-LOX enzyme activity (% of control values, mean ± SD): n = 3
T1 construct: endogenous in cells; host or cells: washed human platelets
T1 sequence (P18054 1-663): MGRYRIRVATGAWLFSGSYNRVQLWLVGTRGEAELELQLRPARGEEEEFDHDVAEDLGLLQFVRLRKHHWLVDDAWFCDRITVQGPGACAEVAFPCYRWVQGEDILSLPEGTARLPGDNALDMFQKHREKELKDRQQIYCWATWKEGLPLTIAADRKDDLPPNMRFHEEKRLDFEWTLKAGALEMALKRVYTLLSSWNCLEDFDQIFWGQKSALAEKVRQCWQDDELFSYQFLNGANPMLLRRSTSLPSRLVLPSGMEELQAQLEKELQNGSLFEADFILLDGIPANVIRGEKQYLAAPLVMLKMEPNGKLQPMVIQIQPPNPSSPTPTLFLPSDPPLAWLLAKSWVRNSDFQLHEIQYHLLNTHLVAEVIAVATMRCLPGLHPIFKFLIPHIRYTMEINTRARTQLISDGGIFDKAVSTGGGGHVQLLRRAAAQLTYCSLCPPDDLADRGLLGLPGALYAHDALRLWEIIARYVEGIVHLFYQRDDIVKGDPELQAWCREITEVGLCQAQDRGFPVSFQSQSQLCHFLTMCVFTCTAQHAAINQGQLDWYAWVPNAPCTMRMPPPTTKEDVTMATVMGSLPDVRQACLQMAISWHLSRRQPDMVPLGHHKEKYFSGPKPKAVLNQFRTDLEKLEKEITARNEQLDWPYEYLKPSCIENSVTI
Protocol: as §1
Measurement of eicosanoids formed by platelets during treatment with collagen or the TP receptor agonists in the presence or absence of PBT-3 was carried out by HPLC after appropriate derivatization with a fluorescent tag (anthracyl diazomethane—ADAM) which forms a fluorescent ester (44). The method was adapted to measure the following compounds: TxB2, HHT, 12-HETE and M. The platelet suspension at the end of the experiment was mixed with ethyl acetate, 100 ng of prostaglandin B1 was added as internal standard and the mixture was acidified to pH 3 with 0.1 N HCl. After centrifugation, the organic layer was separated, washed twice with water to neutrality, and evaporated to dryness. The residue was resuspended in ethyl acetate and half of the sample was taken. It was diluted to 0.2 ml with ethyl acetate containing 20 μg ADAM reagent, and was left in the dark for 2 h. The solvent was then evaporated and the residue was acetylated with a solution of pyridine/acetic anhydride (3/1, v/v) for 16 h at 23°. The reagents were evaporated to dryness and the residue was resuspended in acetonitrile/water for HPLC analysis. Dose response curves for varying amounts of test compounds were generated and the data were expressed as % inhibition of agonist-induced platelet aggregation. Each point was investigated 3 times and statistical analysis of the data was carried out using Macintosh Statview statistical software.
Analysis of the anthryl (ADAM)-acetate derivative of TxB2, HHT and 12 HETE in the extracted platelet samples was carried out on a Hewlett Packard (1100 series) HPLC to which was attached a Shimadzu fluorescent detector (RF-10AXL). The detector was operated with excitation at 364 nm, emission at 411 nm. […]

IC50 ([1]; Homo sapiens, Platelet, washed human platelets, collagen 2 μg, read-out: IC50 for inhibition of collagen-evoked aggregation): ~800 nM
12-LOX enzyme activity (% of control values, mean ± SD) ([3]; PBT-3 0.05 μM): 79.4 ± 7.6 % of control
12-LOX enzyme activity (% of control values, mean ± SD) ([3]; PBT-3 0.30 μM): 85.2 ± 7.4^NS % of control
12-LOX enzyme activity (% of control values, mean ± SD) ([3]; PBT-3 0.60 μM): 73.0 ± 4.9 % of control
12-LOX enzyme activity (% of control values, mean ± SD) ([3]; PBT-3 3.00 μM): 102.5 ± 5.7^NS % of control
SMILES: CCCCC/C=C\CC1CC1[C@@H](O)/C=C\C/C=C\CCCC(=O)OC (stereo partly drawn) [PBT-3, 10(S)-hydroxy-11,12-cyclopropyl-eicosa-5Z,8Z,14Z-trienoic acid methyl ester]
inhibition of collagen-evoked aggregation ([1]; single dose 1 μg added 2 min prior to collagen (2 μg), 350×10^6 washed human platelets in 0.5 ml): inhibited the collagen effect, with PBT-3 being the most potent
inhibition of PGH2-evoked aggregation [2]: inhibited the second wave of aggregation
inhibition of 12-LOX, in words ([3]; relatively large amounts of PBT-3, about 3-4 log doses greater than required to inhibit the TP receptor): Neither COX-1, COX-2,12-LOX nor Plase A2 was inhibited
